What was measured:
[1] = molecular target: human Orexin type 1 receptors (Homo sapiens (Human), UniProt O43613); test: Scintillation Proximity Assay (SPA) binding assay, [3H]SB-674042 displacement, CHO-hOX1 membranes; settings: for OX1 pKi (SPA binding): Table 2, [3H]SB-674042 2 nM; for Ki: Table 1, [3H]SB-674042 2 nM, read-out: OX1 pKi (SPA binding) (converted)
[2] = Measurement of brain fraction unbound (equilibrium dialysis); format: in vitro ADME; settings: pH 7.4, rat brain homogenate, 37° C., read-out: FU brain (%, rat)
Protocol: Measurement of Brain Fraction Unbound (Equilibrium Dialysis)
Brain fractions unbound were determined using equilibrium dialysis in a 96-well format as described in Kalvass and Maurer, 2002. Brain homogenates were prepared using 2 ml/g CSF surrogate (7.30 g/l NaCl, 186.4 mg/l KCl, 239.9 mg/l MgCl2, 185.2 mg/l CaCl2), and 536.0 mg/l Na2HPO4.7H2O, pH 7.4). Dialysis membranes (12-14-kDA cutoff) obtained from Spectrum Laboratories Inc. (Rancho Dominguez, Calif.) were conditioned in water (HPLC grade) for 60 min, followed by 20 min in 20% ethanol, and 15 min in CSF surrogate.
Assay compound concentrations were 5 μM. Diluted brain homogenate was spiked with the compound of interest, and 150-μl aliquots were loaded into the 96-well equilibrium dialysis apparatus and dialyzed against an equal volume of CSF surrogate. Equilibrium was achieved by incubating the 96-well equilibrium dialysis apparatus in a temperature-controlled incubator at 37° C. for 5 h, using an orbital shaker at 125 rpm. At the end of the incubation period, 50-μl aliquots of brain homogenate and buffer were transferred to a 96-well plate, and the composition in each tube was balanced with control fluid to equalize the brain and buffer volumes. Sample extraction was performed by addition of 400 μl of acetonitrile containing internal standard (rolipram). The samples were then vortex-mixed and centrifuged, and 100 μl of supernatants was transferred into a 96-well plate, diluted with 200 μl of 16% acetonitrile/water, and analyzed by liquid chromatography-tandem mass spectrometry (LC-MS/MS).
The brain unbound fraction (FU brain) was calculated from the ratio of analyte/internal standard peak area ratios determined in buffer versus brain homogenate samples using equation (1), which accounts for the effect of tissue dilution on unbound fraction (Kalvass and Maurer, 2002):
[formula] where D is the dilution factor in brain homogenate and fu-diluted is the measured free fraction of diluted brain tissue. Results

[3] = molecular target: human Orexin type 2 receptors (Homo sapiens (Human), UniProt O43614); test: Scintillation Proximity Assay (SPA) binding assay, [3H]EMPA displacement, HEK-hOX2 membranes; settings: for OX2 pKi (SPA binding): Table 2, [3H]EMPA 2 nM; for Ki: Table 1, [3H]EMPA 2 nM, read-out: OX2 pKi (SPA binding) (converted)
human Orexin type 2 receptors, sequence (O43614 whole entry): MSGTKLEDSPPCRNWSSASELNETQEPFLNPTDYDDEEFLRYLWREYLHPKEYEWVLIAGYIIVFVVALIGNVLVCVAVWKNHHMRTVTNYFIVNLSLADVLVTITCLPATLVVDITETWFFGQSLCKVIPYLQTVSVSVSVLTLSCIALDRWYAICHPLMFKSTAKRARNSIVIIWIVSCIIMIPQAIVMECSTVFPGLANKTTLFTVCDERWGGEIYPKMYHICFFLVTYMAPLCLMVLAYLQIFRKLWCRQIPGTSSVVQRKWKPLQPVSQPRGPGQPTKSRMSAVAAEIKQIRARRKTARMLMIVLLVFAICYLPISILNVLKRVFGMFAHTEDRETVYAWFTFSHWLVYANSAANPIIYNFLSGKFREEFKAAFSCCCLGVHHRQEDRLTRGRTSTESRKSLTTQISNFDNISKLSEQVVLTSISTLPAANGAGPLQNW

human Orexin type 1 receptors, sequence (O43613 whole entry): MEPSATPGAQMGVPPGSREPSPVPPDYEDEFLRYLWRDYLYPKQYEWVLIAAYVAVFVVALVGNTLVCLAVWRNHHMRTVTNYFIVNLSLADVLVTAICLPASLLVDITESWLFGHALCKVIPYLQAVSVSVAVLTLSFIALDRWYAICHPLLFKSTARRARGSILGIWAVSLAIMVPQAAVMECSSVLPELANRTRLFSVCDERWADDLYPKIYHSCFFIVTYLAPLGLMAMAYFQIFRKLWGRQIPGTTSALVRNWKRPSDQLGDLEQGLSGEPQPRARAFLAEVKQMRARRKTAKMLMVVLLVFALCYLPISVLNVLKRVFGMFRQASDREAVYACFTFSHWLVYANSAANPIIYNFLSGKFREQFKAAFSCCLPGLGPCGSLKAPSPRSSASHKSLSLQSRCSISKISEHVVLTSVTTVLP

| SMILES | OX1 pKi (SPA binding) [1] | fraction unbound at 5 h, 5 μM [2] | OX2 pKi (SPA binding) [3] | Ki [1] [µM] | Ki [3] [µM] |
| --- | --- | --- | --- | --- | --- |
| C[C@@H]1C2CC(C2)N(C(=O)c2nn(C)cc2-c2ncccn2)C1CNc1ccc(C(F)(F)F)cn1 (mixture of isomers) [Example 213, cis-N-({4-methyl-2-[1-methyl-4-(pyrimidin-2-yl)-1H-pyrazole-3-carbonyl]-2-azabicyclo[3.1.1]heptan-3-yl}methyl)-5-(trifluoromethyl)pyridin-2-amine] | 7.91 | 0.0876 | 4.39 |  |  |
| Cc1ccc(-n2nccn2)c(C(=O)N2C3CC(C3)[C@@H](C)C2CNc2ccc(C(F)(F)F)cn2)n1 (single isomer, unassigned) [Example 183, N-{[(3R,4S) or (3S,4R)-4-methyl-2-[6-methyl-3-(2H-1,2,3-triazol-2-yl)pyridine-2-carbonyl]-2-azabicyclo[3.1.1]heptan-3-yl]methyl}-5-(trifluoromethyl)pyridin2-amine] | 8.31 | 0.0256 | 5.26 |  |  |
| C[C@@H]1C2CC(C2)N(C(=O)c2cc(F)ccc2-n2nccn2)C1CNc1nc2cccnc2s1 (single isomer, unassigned) [Example 230, N-{[(3R,4S) or (3S,4R)-2-[5-fluoro-2-(2H-1,2,3-triazol-2-yl)benzoyl]-4-methyl-2-azabicyclo[3.1.1]heptan-3-yl]methyl}-[1,3]thiazolo[5,4-b]pyridin-2-amine] | 8.46 | 0.0438 | 5.32 |  |  |
| C[C@@H]1C2CC(C2)N(C(=O)c2nn(C)cc2-c2ncccn2)C1CNc1ccc(C(F)(F)F)cn1 (single isomer, unassigned) [Example 215, N-{[(3R,4S) or (3S,4R)-4-methyl-2-{1-methyl-4-(pyrimidin-2-yl)-1H-pyrazole-3-carbonyl]-2-azabicyclo[3.1.1]heptan-3-yl]methyl}-5-(trifluoromethyl)pyridin-2-amine] | 8.15 | 0.0761 | 4.79 |  |  |
| Cc1ccc(-n2nccn2)c(C(=O)N2C3CC(C3)[C@H](C)C2COc2ccc(F)cc2)n1 (single isomer, unassigned) [Example 105, (3S,4S or 3R,4R)-3-[(4-fluorophenoxy)methyl]-4-methyl-2-[6-methyl-3-(2H-1,2,3-triazol-2-yl)pyridine-2-carbonyl]-2-azabicyclo[3.1.1]heptane] |  | 0.0116 |  | 0.00631 | 1.32 |
| Cc1ccc(-c2ncccn2)c(C(=O)N2C3CC(C3)[C@@H](C)[C@@H]2COc2ccc(F)cc2)n1 (single isomer, unassigned) [Example 93, (3S,4S or 3R,4R)-3-(4-fluorophenoxymethyl)-4-methyl-2-[6-methyl-3-(pyrimidin-2-yl)pyridine-2-carbonyl]-2-azabicyclo[3.1.]heptane] |  | 0.0258 |  | 0.00195 | 0.407 |
| Cc1nc(C(=O)N2C3CC(C3)[C@H](C)C2COc2ccc(F)cc2)c(-c2ncccn2)s1 (single isomer, unassigned) [Example 115, (3R,4R) or (3S,4S)-3-[(4-fluorophenoxy)methyl]-4-methyl-2-[2-methyl-5-(pyrimidin-2-yl)-1,3-thiazole-4-carbonyl]-2-azabicyclo[3.1.1]heptane] | 8.5 | 0.0151 | 5.93 |  |  |
| C[C@@H]1C2CC(C2)N(C(=O)c2cc(Cl)ccc2-n2nccn2)C1CNc1cnc(C(F)(F)F)cn1 (single isomer, unassigned) [Example 205, N-({(3R,4S) or (3S,4R)2-[5-chloro-2-(2H-1,2,3-triazol-2-yl)benozyl]-4-methyl-2-azabicyclo[3.1.1]heptan-3-yl}methyl)-5-(trifluoromethyl)pyrazin-2-amine] | 8.59 | 0.0089 | 5.34 |  |  |
| C[C@@H]1C2CC(C2)N(C(=O)c2cc(F)ccc2-n2nccn2)C1CNc1cnc(C(F)(F)F)cn1 (single isomer, unassigned) [Example 223, N-{[(3R,4S) or (3S,4R)-2-[5-fluoro-2-(2H-1,2,3-triazol-2-yl)benzoyl]-4-methyl-2-azabicyclo[3.1.1]heptan-3-yl]methyl}-5-(trifluoromethyl)pyrazin-2-amine] | 8.13 | 0.022 | 4.98 |  |  |
| Cc1ccc(-n2nccn2)c(C(=O)N2C3CC(C3)[C@@H](C)C2CNc2cnc(C(F)(F)F)cn2)n1 (mixture of isomers) [Example 165, cis-N-({4-methyl-2-[6-methyl-3-(2H-1,2,3-triazol-2-yl)pyridine-2-carbonyl]-2-azabicyclo[3.1.1]heptan-3-yl}methyl)-5-(trifluoromethyl)pyrazin-2-amine] | 7.63 | 0.0477 | 4.83 |  |  |
| Cc1ccc(-n2nccn2)c(C(=O)N2C3CC(C3)[C@@H](C)C2CNc2cnc(C(F)(F)F)cn2)n1 (single isomer, unassigned) [Example 167, N-{[(3R,4S) or (3S,4R)-4-methyl-2-[6-methyl-3-(2H-1,2,3-triazol-2-yl)pyridine-2-carbonyl]-2-azabicyclo[3.1.1]heptan-3-yl]methyl}-5-(trifluoromethyl)pyrazin-2-amine] | 8.12 | 0.0593 | 5.13 |  |  |
| Cc1ccc(-n2nccn2)c(C(=O)N2C3CC(C3)[C@@H](C)C2CNc2nc3cccnc3s2)n1 (single isomer, unassigned) [Example 186, N-({(3R,4S) or (3S,4R)-4-methyl-2-[6-methyl-3-(2H-1,2,3-triazol-2-yl)pyridine-2-carbonyl]-2-azabicyclo[3.1.1]heptan-3-yl}methyl)-[1,3]thiazolo[5,4-b]pyridin-2-amine] | 8.42 | 0.147 | 5.36 |  |  |

From patent US11660293B2, “Substituted 2-azabicyclo[3.1.1]heptane and 2-azabicyclo[3.2.1]octane derivatives as orexin receptor antagonists” (Chronos Therapeutics Limited, priority 2017, dated 2023)
